Laboratory results taken from US20250145637A1, “SULFONAMIDE DERIVATIVE, PREPARATION METHOD THEREFOR AND MEDICAL USE THEREOF” (Jiangsu Hengrui Pharmaceuticals Co. Ltd., priority 2021, published 2025).

How the values were obtained:
ER+ breast cancer = conditions: both in vitro and in vivo; cited from earlier work
ERα expression = conditions: ER+ breast cancer cells highly expressing KAT6A; cited from earlier work
human KAT6A = human KAT6A (Homo sapiens (Human), UniProt Q92794); test: KAT6 enzyme activity assay (AlphaScreen method), KAT6A; type: biochemical; conditions: inhibition of the enzyme human KAT6A
Sequence of human KAT6A (Q92794 whole entry): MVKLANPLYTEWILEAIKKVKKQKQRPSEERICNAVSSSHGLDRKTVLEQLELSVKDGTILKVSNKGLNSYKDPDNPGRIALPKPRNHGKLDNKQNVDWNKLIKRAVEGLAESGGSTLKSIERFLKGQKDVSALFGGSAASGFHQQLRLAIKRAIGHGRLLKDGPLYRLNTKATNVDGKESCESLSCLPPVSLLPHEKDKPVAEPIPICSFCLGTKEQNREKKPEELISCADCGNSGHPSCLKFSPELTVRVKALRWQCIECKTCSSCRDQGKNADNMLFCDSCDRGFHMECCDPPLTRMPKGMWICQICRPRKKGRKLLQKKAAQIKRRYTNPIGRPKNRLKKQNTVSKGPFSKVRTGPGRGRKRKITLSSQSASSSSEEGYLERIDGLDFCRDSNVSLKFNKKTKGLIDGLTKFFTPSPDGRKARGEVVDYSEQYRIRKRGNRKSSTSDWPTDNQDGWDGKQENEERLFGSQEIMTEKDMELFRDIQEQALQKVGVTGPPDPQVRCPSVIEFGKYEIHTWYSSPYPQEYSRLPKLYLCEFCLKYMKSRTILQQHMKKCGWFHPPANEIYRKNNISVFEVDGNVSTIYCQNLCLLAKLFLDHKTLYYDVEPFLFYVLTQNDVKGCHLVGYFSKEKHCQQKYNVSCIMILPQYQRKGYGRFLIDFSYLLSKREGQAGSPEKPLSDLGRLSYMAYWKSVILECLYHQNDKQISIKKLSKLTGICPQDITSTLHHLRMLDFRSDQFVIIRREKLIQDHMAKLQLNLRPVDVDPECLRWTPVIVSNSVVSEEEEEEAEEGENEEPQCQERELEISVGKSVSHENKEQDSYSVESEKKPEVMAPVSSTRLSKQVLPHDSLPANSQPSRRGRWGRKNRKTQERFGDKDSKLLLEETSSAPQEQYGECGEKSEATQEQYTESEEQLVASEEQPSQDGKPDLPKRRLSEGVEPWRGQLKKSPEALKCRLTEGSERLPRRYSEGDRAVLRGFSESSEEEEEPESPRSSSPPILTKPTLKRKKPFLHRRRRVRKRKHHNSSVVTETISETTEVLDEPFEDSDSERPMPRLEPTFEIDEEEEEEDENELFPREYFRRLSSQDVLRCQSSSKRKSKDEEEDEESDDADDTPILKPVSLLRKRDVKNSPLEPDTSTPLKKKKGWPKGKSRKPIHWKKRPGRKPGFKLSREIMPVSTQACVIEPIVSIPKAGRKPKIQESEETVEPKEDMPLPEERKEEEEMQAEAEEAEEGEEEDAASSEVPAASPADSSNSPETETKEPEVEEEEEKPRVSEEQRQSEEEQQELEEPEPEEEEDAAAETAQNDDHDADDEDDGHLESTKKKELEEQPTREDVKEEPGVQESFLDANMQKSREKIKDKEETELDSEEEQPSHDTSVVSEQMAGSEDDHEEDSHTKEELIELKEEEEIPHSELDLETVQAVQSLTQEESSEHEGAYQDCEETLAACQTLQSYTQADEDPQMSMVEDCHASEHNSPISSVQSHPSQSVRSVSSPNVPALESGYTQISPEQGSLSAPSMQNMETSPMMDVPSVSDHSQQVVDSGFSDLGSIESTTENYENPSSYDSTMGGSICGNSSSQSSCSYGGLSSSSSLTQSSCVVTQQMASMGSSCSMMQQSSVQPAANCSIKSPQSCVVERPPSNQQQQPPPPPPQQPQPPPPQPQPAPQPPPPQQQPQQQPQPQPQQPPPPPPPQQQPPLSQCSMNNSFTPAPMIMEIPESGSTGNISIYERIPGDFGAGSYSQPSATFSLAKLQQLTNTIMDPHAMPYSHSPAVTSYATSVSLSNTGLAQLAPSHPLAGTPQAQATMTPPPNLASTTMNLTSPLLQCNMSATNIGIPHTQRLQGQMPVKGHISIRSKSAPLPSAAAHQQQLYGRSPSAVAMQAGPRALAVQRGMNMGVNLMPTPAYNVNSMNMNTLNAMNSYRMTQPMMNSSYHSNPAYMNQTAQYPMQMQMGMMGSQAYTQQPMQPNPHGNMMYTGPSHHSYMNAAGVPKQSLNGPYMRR
From the text: Test Example 1: KAT6 Enzyme Activity Assay (AlphaScreen Method)
I. Reagents and instrument • 1. KAT6A (customized by Chempartner) • 2. Ovalbumin (Sigma-Aldrich, A5378-5G) • 3. 2 M Tris-HCl solution, pH 7.8, sterile (Sangon, B548140-0500) • 4. 5 M NaCl solution (Sangon, B548121-0100) • 5. EDTA (0.5 M), pH 8.0, RNase-free (Thermofisher, AM9260G) • 6. Tween-20 (Sangon, A100777-0500) • 7. DTT, 1 M (Invitrogen, P2325) • 8. Acetyl coenzyme A (Ac-CoA, CAYMAN, Cat. No. 16160) • 9. Recombinant histone H3.1 biotinylated (human) (Active Motif 31696) • 10. 384-well plate, light gray (Perkin Elmer, Cat. No. 6005350) • 11. Anacardic acid (MCE, Cat. No. HY—N2020) • 12. AlphaScreen streptavidin donor beads, 5 mg (PerkinElmer, 6760002) • 13. AlphaScreen protein A acceptor beads, 5 mg (PerkinElmer, 6760137M) • 14. Acetylated-lysine antibody #9441 (CST 9441S) • 15. PHERA star microplate reader (BMG labtech) • II. Experimental method
a. 1× assay buffer: 100 mM Tris-HCl, pH 7.8; 15 mM NaCl; 1 mM EDTA; 0.01% tween-20; 1 mM DTT; 0.01% m/v ovalbumin.
b. KAT enzyme solution: 1.25 nM (final concentration), prepared in 1× assay buffer.
c. Mixed substrate of Ac-CoA and H3: a mixed substrate of 1000 nM (final concentration) Ac-CoA and 55 nM (final concentration) H3, prepared in 1× assay buffer.
d. Compounds: initial concentration of 100 μM, 3-fold dilution, 10 gradient concentrations. All compound concentrations were diluted 83-fold with 1× assay buffer for later use.
e. Assay reagent: 8 ng/μL (final concentration) AlphaScreen protein A acceptor beads, 8 ng/μL AlphaScreen streptavidin donor beads, 1:1500 diluted acetylated-lysine antibody, and 100 μM anacardic acid; prepared in 1× assay buffer.
2. Experimental Procedure
a. The prepared enzyme solution was added to a 384-well plate at 3 μL/well, and 3 μL of 1× assay buffer was added to each well in columns 23 and 24 (Min).
b. 3 μL of compound solution was added to each well, and 3 μL of buffer was added to each Min well; 3 μL of DMSO solution was added to each well in columns 1 and 2 (Max) as controls. The plate was centrifuged, shaken for 2 min, and incubated at room temperature for 15 min.
c. The mixed substrate of Ac-CoA and H3 was added at 6 μL/well, and the plate was centrifuged, shaken for 2 min, and incubated at room temperature for 20 min.
d. The assay reagent was added at 6 μL/well, and the plate was centrifuged, shaken for 2 min, and incubated in the dark at room temperature for 120 min.
e. Plate reading was performed on the microplate reader, and AlphaScreen counts were recorded.
f. Plotting was performed using the Graphpad software, and the IC50 values of the compounds were calculated.

ZR-75-1 = ZR-75-1 proliferation assay (CellTiter-Glo, day 14); type: cell-based; conditions: Homo sapiens, 336 h, CTG assay day 14
From the text: Test Example 4: ZR-75-1 Proliferation Assay
I. Reagents and Instruments
• 1. ZR-75-1 (ATCC CRL1500) • 2. 1640 medium (Gibco, 22400-089) • 3. 0.25% trypsin-EDTA (1×) (Gibco, 25200-072) • 4. Penicillin-streptomycin (Gibco, 15140-122) • 5. DPBS (1×) (Gibco, 14190-144) • 6. FBS (Gibco, 10091148) • 7. Assay plate, 96-well, black with clear bottom (Corning, 3603) • 8. 96-well non-treated round-bottom plate (JET BIOFIL, TCP-002-096) • 9. CellTiter-Glo buffer (Promega, G756B) • 10. CellTiter-Glo substrate (Promega, G755B) • 11. Automatic cell counter (Countstar, IC1000) • 12. Thermostatic incubator (Thermo, 1160) • 13. PHERAstar FS (BMG labtech, PHERAstar FS)
a. The state of cells was observed under a microscope to make sure that the cell confluence was about 90%.
b. The cell supernatant was discarded. The cells were rinsed with DPBS once, and the DPBS was removed. The cells were digested with a proper amount of trypsin and left to stand at 37° C. for 5 min.
c. The digestion was stopped with an equal volume of 1640 medium containing 10% FBS, and the cell suspension was collected and centrifuged at 300 g for 3 min. The cells were suspended in a proper amount of fresh medium.
d. The resulting cell suspension was collected and cell counting was performed.
e. The cell suspension was diluted to 5×10^4/mL, 50 μL/well with 1640 medium containing 10% FBS. Each well contained 2500 ZR-75-1 cells.
f. The cell culture plates were incubated overnight in a 37° C., 5% carbon dioxide incubator.
2. Compound Addition (Day 1)
a. Each compound was serially diluted in DMSO to 9 concentration points (initial concentration of 100 μM, 3-fold dilution; the highest concentration of each compound may be adjusted depending on its IC50). For example, in a 96-well non-treated round-bottom plate, 3 μL of compound was serially diluted in 6 μL of DMSO.
b. Each concentration point of each compound was diluted 500-fold in the corresponding volume of 1640 medium.
c. 50 μL of diluted compound solution was added to the cell supernatant (50 μL/well) in each cell plate.
d. After the addition, the cell plates were incubated in a 37° C., 5% carbon dioxide incubator.
3. The Cells were Re-Digested and Plated, and the Compounds were Added (Day 7).
a. Six days after the addition, the compound-containing medium was discarded. Then the cells were rinsed with DPBS (150 μL/well), and the DPBS was immediately pipetted off.
b. The cells were digested with 50 μL of trypsin and left to stand at 37° C. for 3 min, and then the digestion was stopped with 1640 medium containing 10% FBS (150 μL/well).
c. The cells were well mixed using a pipette and re-plated at a ratio of 1:8; that is, 25 μL of cell suspension was pipetted into a new 96-well plate (25 μL of 1640 medium containing 10% FBS had been added to the new plate in advance).
d. Compound solution preparation and addition (50 μL/well) were performed according to steps a to c in 2.
e. After the addition, the cell plates were incubated in a 37° C., 5% carbon dioxide incubator.
a. CellTiter-Glo buffer and lyophilized CellTiter-Glo substrate were equilibrated to room temperature before use and were well mixed to prepare a 100-mL CellTiter-Glo reagent (or a prepared CellTiter-Glo reagent was removed from a −20° C. freezer and equilibrated to room temperature).
b. The plates to be tested were removed from the incubator and equilibrated to room temperature, and the CellTiter-Glo reagent was added at 50 μL/well.
c. The plates were shaken for 2 min so that the cells were completely lysed.
d. After the plates were left to stand at room temperature for 28 min and signals were stable, the plates were tested on PHERAstar FS.

[1] = Pharmacokinetic evaluation in SD rats; type: in vivo; conditions: both sexes, rat, plasma, po, i.g., 2.0 mg/kg
Protocol: Test Example 5: Pharmacokinetic Evaluation
SD rats were used as test animals. After intragastric (i.g.) administration of the compounds of the present disclosure to SD rats, the plasma concentrations at different time points were measured by the LC/MS/MS method. The pharmacokinetic behavior of the compounds of the present disclosure in SD rats was studied, and their pharmacokinetic profiles were evaluated.
Compound 2, compound 7, compound 21, and compound 23.
16 SD rats, of which half were male and half female, were evenly divided into 4 groups. The rats were provided by Vital River Laboratory Animal Technology Co., Ltd. The rats were fasted overnight and intragastrically administered the compounds.
2.3. Compound Solution Preparation
A certain amount of test compound was weighed out and dissolved in 5% DMSO+5% tween 80+90% normal saline to prepare a 0.2 mg/mL colorless clear solution.
The dose administered was 2.0 mg/kg, and the volume was 10.0 mL/kg.
0.1 mL blood samples were collected from the orbit before the administration and 0.25 h, 0.5 h, 1.0 h, 2.0 h, 4.0 h, 6.0 h, 8.0 h, 11.0 h and 24.0 h post-dose. The blood samples were placed into EDTA-K2 anticoagulation tubes and centrifuged at 10,000 rpm for 1 min (4° C.), and plasma was separated within 1 h and stored at −20° C. before analysis. The process from the blood collection to the centrifugation was performed in an ice bath. Access to food was given 2 h post-dose.
Measurement of plasma concentrations in SD rats after compounds were administered in different concentrations: 25 μL samples of the SD rat plasma collected at various time points post-dose were taken, and to each of the samples was added 25 μL of camptothecin (an internal standard for compound 2, 100 ng/mL) or 50 μL of tolbutamide (an internal standard for compound 7, 100 ng/mL) or 50 μL of verapamil (an internal standard for compounds 21 and 23, 100 ng/mL). Protein was precipitated with 200 μL of acetonitrile, and after 5 min of vortexing, the mixtures were centrifuged at 3700 rpm for 10 min. 120 µL of supernatant was taken and vortexed with 30 μL of water for 5 min, and a 5 μL sample was taken for LC/MS/MS analysis.

Row | SMILES | anti-tumor activity in ER+ breast cancer (ER+ breast cancer) | ERα expression (ERα expression) | IC50 (human KAT6A) [nM] | IC50 (ZR-75-1; ZR-75-1 proliferation) [nM] | Emax (ZR-75-1; inhibition of ZR-75-1 proliferation, read-out: Maximum inhibition rate/Imax %) [%] | Vd/F ([1]; read-out: Apparent distribution volume Vz/F) [L/kg] | AUC(0-t) ([1]; read-out: Area under curve AUC0-t) [ng·h/mL] | CL/F ([1]; read-out: Clearance rate CL/F) [mL/min/kg] | half-life ([1]; read-out: Half-life T½ (converted)) [h] | Cmax ([1]; read-out: Plasma concentration Cmax) [ng/mL]
1 | COc1cccc(OC)c1S(=O)(=O)Nc1noc2cc(Cn3cccn3)cc(OC)c12 [CTx-648] | shows anti-tumor activity | can down-regulate ERα expression | – | – | – | – | – | – | – | –
2 | COc1cc2c(cc1S(=O)(=O)Nc1noc3cc(Cn4cccn4)c4c(c13)OCCC4)CCC2 [Compound 6, N-(5-((1H-pyrazol-1-yl)methyl)-3,4-dihydro-2H-chromeno[8,7-d]isoxazol-9-yl)-6-methoxy-2,3-dihydro-1H-indene-5-sulfonamide] | – | – | 0.4 | 0.6 | 95.4 | – | – | – | – | –
3 | Cc1ccc(S(=O)(=O)Nc2noc3cc(Cn4cccn4)c4c(c23)OCC4)c(OCC(F)(F)F)c1 [Compound 21, N-(4-((1H-pyrazol-1-yl)methyl)-2,3-dihydrobenzofuro[7,6-d]isoxazol-8-yl)-4-methyl-2-(2,2,2-trifluoroethoxy)benzenesulfonamide] | – | – | 4.6 | – | – | 0.496 | 43700 | 0.788 | 9.58 | 4310
